US9790196B2, “Lysine demethylase inhibitors for diseases and disorders associated with Flaviviridae” (Oryzon Genomics, S.A., priority 2010, dated 2017)
Read-outs that look alike come from different tables or passages of the source.

Columns and labels:
[1] = tested on: H3K4 methylation in SH-SY5Y cells; assay: Western blot for dimethylated H3K4 in SH-SY5Y cells; type: cell-based
Description: […]. B-actin was used as a loading control.

in vitro = conditions: human, Cytotoxicity IC50, 72 hr
Protocol: (§1) The effect of drug added in triplicate at concentrations of from e.g., 0 to 100 uM using half log dilutions on HCV RNA-derived LUC activity and cytotoxicity. Human interferon alpha-2b is included in each run as a positive control compound. Subconfluent cultures of the ET line are plated out into 96-well plates that are dedicated for the analysis of cell numbers (cytotoxicity) or antiviral activity and the next day drugs are added to the appropriate wells. Cells are processed 72 hr later when the cells are still subconfluent. Compound cytotoxicity is assessed as the percent viable cells relative to the untreated cell controls.

[2] = tested on: Huh7 ET (luc-ubi-neo/ET) cells; assay: in vitro; conditions: read-out: Cytotoxicity IC50; 72 hr
Protocol: as §1

[3] = tested on: HCV RNA replicon in Huh7 ET (luc-ubi-neo/ET) cells; assay: microbe, parasite or virus in culture; type: cell-based
Protocol: Anti-HCV assays were conducted at Southern Research Organization using an HCV RNA replicon with a luciferase reporter.
Southern Research reports that they use cell line Huh7 ET (luc-ubi-neo/ET) containing a HCV RNA replicon with a luciferase (LUC) reporter. […] This composition of the replicon is shown as follows
The HCV RNA replicon ET contains the 5′ NTR (IRES) of HCV (5′) which drives the production of a firefly luciferase (Luc), ubiquitin (Ubiq), and neomycin phosphotransferase (Neo) fusion protein. Ubiquitin cleavage releases the LUC and Neo genes. The EMCV IRES element (E-I) controls the translation of the HCV […] proteins NS3-NS5 and is located between Neo and NS3. The NS3 protein cleaves the HCV polyprotein to release the mature NS3, NS4A, NS4B, NS5A and NS5B proteins that are required for HCV replication. At the 3′ end of the replicon is the authentic 3′ NTR of HCV. The LUC reporter is used as an indirect measure of HCV replication. The activity of the LUC reporter is directly proportional to HCV RNA levels and positive control antiviral compounds behave comparably using either LUC or RNA endpoints.
as §1

PK studies (Cmax) = type: in vivo, mice; conditions: at the MTD study doses
Protocol: (§2) Maximum tolerated dose studies and pharmacokinetics for several LSD1 inhibitors were assessed to determine if the compounds can be administered to mammals safely at doses that are expected to achieve therapeutic effects. In particular, Compound X was given to mice IP at 20 mg/kg, 40 mg/kg and 60 mg/kg daily for 5 days in a MTD study conducted at Leitat.

[4] = Maximum tolerated dose study; type: in vivo; conditions: mice, IP, 20, 40 and 60 mg/kg daily for 5 days
Protocol: as §2

| SMILES | potency at increasing global dimethylated H3K4 levels as compared to tranylcypromine [1] [fold] | IC50 (in vitro) [nM] | IC50 [2] [nM] | EC50 ([3]; HCV RNA-derived LUC activity, 72 hr, read-out: Antiviral Activity EC50) [nM] | EC50 ([3]; Hepatitis C virus, Huh7 ET, 72 h, HCV RNA-derived LUC activity, 72 hr, read-out: Antiviral Activity EC50) [nM] | EC50 ([3]; Hepatitis C virus, Huh7 ET, read-out: anti-HCV activity in HCV RNA replication assay) [nM] | Cmax (PK studies (Cmax)) | tolerability in MTD study [4] |
| --- | --- | --- | --- | --- | --- | --- | --- | --- |
| NC(=O)CNC1CC1c1ccc(OCc2ccccc2)cc1 (centres unmarked) [Dual-1] | ≥ 10 | – | – | – | – | – | – | – |
| NC1CC1c1ccc(-c2cccc(O)c2)cc1 (centres unmarked) [Compound X] | – | 54800 | 50600 | < 320 | 490 | 300 to 500 | expected to result in therapeutic levels | tolerated with acceptable toxicity |
